Values joined by “and” are separate entries in the source; they are usually repeats but may differ in a detail not shown here. Equal values may be shown once. Where a SMILES comes first, the peptide text is derived from it. [ ]: non-standard residue; d: D form. Hyp = O=C(O)[C@@H]1C[C@@H](O)CN1
Tested on: IL-10
Assay: Example 9 Luminex, LPS hPBMCs: IL-10
Type: cell-based, human
Conditions: for Concentration / conc/live cell (pg/10^5): IL-10
Procedure: Treatment Human PBMCs were pretreated with YY-101, YDE-011 and YDE-043 or reference compound; Xiidra® at various concentration (ranging from 1 nM to 100 uM) for 2 h before stimulation. An equal volume of 0.5% DMSO was used as a vehicle control. Then, the cells were treated with LPS at 5 ug/ml. The supernatants from treated cells were harvested at 24 h and placed in a 96 well for Luminex cytokine & chemokine profiling using a Luminex 200 multiplex assay (Luminex; R&D system, USA).
The main study arm with triplicate wells per group in a 24-well plate: • 1. Blank • 2. PBMC: 0.5% DMSO • 3. PBMC+LPS (5 ug/ml) • 4. PBMC+YY-101 100 uM • 5. PBMC+YY-101 10 uM • 6. PBMC+YY-101 1 uM • 7. PBMC+YY-101 0.1 uM • 8. PBMC+YY-101 0.01 uM • 9. PBMC+LPS (5 ug/ml)+Xiidra®100 uM • 10. PBMC+LPS (5 ug/ml)+Xiidra® 10 uM • 11. PBMC+LPS (5 ug/ml)+Xiidra® 1 uM • 12. PBMC+LPS (5 ug/ml)+Xiidra®0.1 uM • 13. PBMC+LPS (5 ug/ml)+Xiidra®0.01 uM • 14. PBMC+LPS (5 ug/ml)+Xiidra®0.001 uM • 15. PBMC+LPS (5 ug/ml)+YY-101 100 uM • 16. PBMC+LPS (5 ug/ml)+YY-101 10 uM • 17. PBMC+LPS (5 ug/ml)+YY-101 1 uM • 18. PBMC+LPS (5 ug/ml)+YY-101 0.1 uM • 19. PBMC+LPS (5 ug/ml)+YY-101 0.01 uM • 20. PBMC+LPS (5 ug/ml)+YY-101 0.001 uM • 21. PBMC+LPS (5 ug/ml)+YDE-011 100 uM • 22. PBMC+LPS (5 ug/ml)+YDE-011 10 uM • 23. PBMC+LPS (5 ug/ml)+YDE-011 1 uM • 24. PBMC+LPS (5 ug/ml)+YDE-011 0.1 uM • 25. PBMC+LPS (5 ug/ml)+YDE-011 0.01 uM • 26. PBMC+LPS (5 ug/ml)+YDE-011 0.001 uM • 27. PBMC+LPS (5 ug/ml)+YDE-043 100 uM • 28. PBMC+LPS (5 ug/ml)+YDE-043 10 uM • 29. PBMC+LPS (5 ug/ml)+YDE-043 1 uM • 30. PBMC+LPS (5 ug/ml)+YDE-043 0.1 uM • 31. PBMC+LPS (5 ug/ml)+YDE-043 0.01 uM • 32. PBMC+LPS (5 ug/ml)+YDE-043 0.001 uM
Multiplex assay was used to measure 30 cytokines and chemokines. The 1:2, 1:10 and 1:200 diluted cell supernatant and serial dilution of the standard were dispensed into a 96 well plate at 50 ul/well. Then, the pre-mixed cocktail of antibody-coated magnetic beads was dispensed at 50 ul/well and incubated at room temperature for 2 h in a horizontal orbital microplate shaker at 800±500 rpm. The beads were washed using a magnetic device to prevent loss. The biotin-antibody was dispensed in 50 ul of each well and incubated at room temperature for 1 h in a shaker at 800±500 rpm. After washing, streptavidin-PE was added at 50 ul/well and incubated at room temperature for 30 min in a shaker under the same conditions. Finally, after washing, wash buffer (100 ul/well) was added to the plate and incubated in a shaker for 2 min. The Luminex™ 200 setting were set according to the manufacturer's protocol. The data was calculated with a standard five-parameter logistic nonlinear regression analysis of the data (xPonent software 4.2, USA). The levels of cytokine/chemokine are normalized to the live cell counts (1×10^5 cells/mL) and presented as concentrations per mL (pg/mL or ng/mL).

[1] = PBMC + LPS(5 ug/ml) + test article 0.001 uM, Mean
[2] = PBMC + LPS(5 ug/ml) + test article 0.001 uM, single replicates
[3] = PBMC + LPS(5 ug/ml) + test article 0.01 uM, Mean
[4] = PBMC + LPS(5 ug/ml) + test article 0.01 uM, single replicates
[5] = PBMC + LPS(5 ug/ml) + test article 0.1 uM, Mean
[6] = PBMC + LPS(5 ug/ml) + test article 0.1 uM, single replicates
[7] = PBMC + LPS(5 ug/ml) + test article 1 uM, Mean
[8] = PBMC + LPS(5 ug/ml) + test article 1 uM, single replicates
[9] = PBMC + LPS(5 ug/ml) + test article 10 uM, Mean
[10] = PBMC + LPS(5 ug/ml) + test article 10 uM, single replicates
[11] = PBMC + LPS(5 ug/ml) + test article 100 uM, Mean
[12] = PBMC + LPS(5 ug/ml) + test article 100 uM, single replicates
[13] = PBMC + test article 0.01 uM, no LPS, Mean
[14] = PBMC + test article 0.01 uM, no LPS, single replicates
[15] = PBMC + test article 0.1 uM, no LPS, Mean
[16] = PBMC + test article 0.1 uM, no LPS, single replicates
[17] = PBMC + test article 10 uM, no LPS, Mean
[18] = PBMC + test article 10 uM, no LPS, single replicates
[19] = PBMC + test article 100 uM, no LPS, Mean
[20] = PBMC + test article 100 uM, no LPS, single replicates

Structure (SMILES): CC(C)C[C@H](NC(=O)CNC(=O)[C@H](CC(=O)O)NC(=O)[C@H](CCC(N)=O)NC(=O)CNC(=O)[C@@H]1C[C@@H](O)CN1)C(=O)N[C@@H](C)C(=O)NCC(=O)N1CCC[C@H]1C(=O)N[C@@H](CCCCN)C(=O)O [YY-101] (H-[Hyp]GQDGLAGPK-OH; N-terminus and C-terminus assumed)
- Concentration [1]: 479.4 pg/mL
- conc/live cell (pg/10^5) [1]: 74.9 pg/10^5
- Concentration [2]: 501.5 pg/mL and 488.8 pg/mL and 447.9 pg/mL
- conc/live cell (pg/10^5) [2]: 88.0 pg/10^5 and 68.9 pg/10^5 and 67.9 pg/10^5
- Concentration [3]: 499.9 pg/mL
- conc/live cell (pg/10^5) [3]: 81.1 pg/10^5
- Concentration [4]: 492.8 pg/mL and 499.5 pg/mL and 507.4 pg/mL
- conc/live cell (pg/10^5) [4]: 77.0 pg/10^5 and 83.2 pg/10^5 (2×)
- Concentration [5]: 445.6 pg/mL
- conc/live cell (pg/10^5) [5]: 76.6 pg/10^5
- Concentration [6]: 426.9 pg/mL and 459.4 pg/mL and 450.6 pg/mL
- conc/live cell (pg/10^5) [6]: 68.9 pg/10^5 and 88.3 pg/10^5 and 72.7 pg/10^5
- Concentration [7]: 519.9 pg/mL
- conc/live cell (pg/10^5) [7]: 80.1 pg/10^5
- Concentration [8]: 556.7 pg/mL and 484.8 pg/mL and 518.0 pg/mL
- conc/live cell (pg/10^5) [8]: 88.4 pg/10^5 and 68.3 pg/10^5 and 83.6 pg/10^5
- Concentration [9]: 474.4 pg/mL
- conc/live cell (pg/10^5) [9]: 72.3 pg/10^5
- Concentration [10]: 464.8 pg/mL and 537.1 pg/mL and 421.4 pg/mL
- conc/live cell (pg/10^5) [10]: 77.5 pg/10^5 and 83.9 pg/10^5 and 55.4 pg/10^5
- Concentration [11]: 172.4 pg/mL
- conc/live cell (pg/10^5) [11]: 29.9 pg/10^5
- Concentration [12]: 173.5 pg/mL and 168.6 pg/mL and 175.1 pg/mL
- conc/live cell (pg/10^5) [12]: 27.5 pg/10^5 and 27.2 pg/10^5 and 35.0 pg/10^5
- Concentration [13]: 4.3 pg/mL
- conc/live cell (pg/10^5) [13]: 0.5 pg/10^5
- Concentration [14]: 4.3 pg/mL
- conc/live cell (pg/10^5) [14]: 0.0 pg/10^5 and 0.9 pg/10^5
- Concentration [15]: 4.3 pg/mL
- conc/live cell (pg/10^5) [15]: 0.4 pg/10^5
- Concentration [16]: 4.3 pg/mL
- conc/live cell (pg/10^5) [16]: 0.0 pg/10^5 and 0.7 pg/10^5
- conc/live cell (pg/10^5) (PBMC + test article 1 uM, no LPS, Mean): 0.0 pg/10^5
- conc/live cell (pg/10^5) (PBMC + test article 1 uM, no LPS, single replicates): 0.0 pg/10^5
- Concentration [17]: 12.6 pg/mL
- conc/live cell (pg/10^5) [17]: 2.0 pg/10^5
- Concentration [18]: 23.2 pg/mL and 2.0 pg/mL
- conc/live cell (pg/10^5) [18]: 3.6 pg/10^5 and 0.3 pg/10^5
- Concentration [19]: 8.2 pg/mL
- conc/live cell (pg/10^5) [19]: 0.6 pg/10^5
- Concentration [20]: 8.2 pg/mL
- conc/live cell (pg/10^5) [20]: 1.3 pg/10^5 and 0.0 pg/10^5
- LPS-induced IL-10 (in words) (LPS 5 ug/mL 24 hrs, 100 uM to 1 nM): significantly reduced

Reference: patent US20230146455A1, “TREATMENT OF INFLAMMATORY DISEASES WITH PEPTIDES AND PHARMACEUTICAL COMPOSITIONS” (Yuyu Pharma, Inc., priority 2020, published 2023)
